Reference: PubChem BioAssay (NCI)
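Test compounds were applied to cells in 96-well plates for 48 hours at 5 doses. Abbreviation: GI50, concentration required for 50% inhibition of growth. TGI: concentration producing complete growth inhibition.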

Columns and labels:
Assay in all cases: growth of human tumour cells (NCI), 48 h
A549 NSCLC = tested on: A549 NSCLC
DU-145 prostate = tested on: DU-145 prostate
HCT-15 colon = tested on: HCT-15 colon
MDA-MB-231 breast = tested on: MDA-MB-231 breast
NCI-H23 lung = tested on: NCI-H23 lung
NCI-H522 lung = tested on: NCI-H522 lung
OVCAR-8 ovarian = tested on: OVCAR-8 ovarian
SF-268 CNS = tested on: SF-268 CNS
SK-MEL-28 melanoma = tested on: SK-MEL-28 melanoma
SN12C renal = tested on: SN12C renal

| Structure (SMILES) | TGI (A549 NSCLC) [µM] | TGI (DU-145 prostate) [µM] | TGI (HCT-15 colon) [µM] | TGI (MDA-MB-231 breast) [µM] | TGI (NCI-H23 lung) [µM] | TGI (NCI-H522 lung) [µM] | TGI (OVCAR-8 ovarian) [µM] | TGI (SF-268 CNS) [µM] | TGI (SK-MEL-28 melanoma) [µM] | TGI (SN12C renal) [µM] | GI50 (A549 NSCLC) [µM] | GI50 (DU-145 prostate) [µM] | GI50 (HCT-15 colon) [µM] | GI50 (MDA-MB-231 breast) [µM] | GI50 (NCI-H23 lung) [µM] | GI50 (NCI-H522 lung) [µM] | GI50 (OVCAR-8 ovarian) [µM] | GI50 (SF-268 CNS) [µM] | GI50 (SK-MEL-28 melanoma) [µM] | GI50 (SN12C renal) [µM] |
| --- | --- | --- | --- | --- | --- | --- | --- | --- | --- | --- | --- | --- | --- | --- | --- | --- | --- | --- | --- | --- |
| COc1ccc(OC)c(SC(CC(=O)c2ccccc2)c2ccccc2)c1 (stereo not given) | 91.7 | 21.9 | 35.4 | 25.7 | 33.3 | 29.2 | 28.7 | 40.2 | 32.6 | 40.6 | – | – | – | – | – | – | – | – | – | – |
| COc1cnc2c(c1)C(=O)c1c-2n(CCCNCCO)c(=O)c2ccncc12 | 9.38 | 6.73 | 13.7 | 10.9 | 6.91 | 7.26 | 23.7 | 9.26 | 5.79 | 13.6 | 1.99 | 1.36 | 2.3 | 1.95 | 1.65 | 0.607 | 0.876 | 1.28 | 2.08 | 1.08 |
| CC1(C)CC(=O)C2(CC(CSc3ccccc3)C(CS(=O)(=O)c3ccccc3)C2)C(=O)C1 (stereo not given) | > 100 | > 100 | > 100 | > 100 | > 100 | > 100 | > 100 | > 100 | > 100 | > 100 | – | – | – | – | – | – | – | – | – | – |
| NCC(O)CSCc1ccc(Cl)cc1 (stereo not given) | > 100 | > 100 | > 100 | > 100 | > 100 | > 100 | > 100 | > 100 | > 100 | > 100 | – | – | – | – | – | – | – | – | – | – |
| CN(C)CCn1c(CO)nc2c1c(=O)n(C)c(=O)n2C | > 100 | > 100 | > 100 | > 100 | > 100 | > 100 | > 100 | > 100 | > 100 | > 100 | – | – | – | – | – | – | – | – | – | – |
| CCN(CC)C(=S)SS(=O)(=O)c1cccc(N)c1 | > 100 | > 100 | > 100 | > 100 | > 100 | > 100 | > 100 | > 100 | > 100 | > 100 | – | – | – | – | – | – | – | – | – | – |
| O=C(Nn1c(-c2ccccc2)nc2ccccc2c1=O)c1ccccc1O | > 100 | > 100 | > 100 | > 100 | > 100 | > 100 | > 100 | > 100 | > 100 | > 100 | – | – | – | – | – | – | – | – | – | – |
| O=C1c2c(O)cccc2-c2nn(CCNCCO)c3ccc(NCCNCCO)c1c23 | 0.482 | 0.0707 | 70.5 | 2.51 | 0.592 | 0.164 | 4.24 | 1.17 | 1.97 | 0.454 | – | – | – | – | – | – | – | – | – | – |
| O=C(Nc1ccccc1C(=O)NCc1ccccc1)/C(=C/c1ccccc1)NC(=O)c1ccccc1 | > 100 | > 100 | > 100 | > 100 | > 100 | > 100 | > 100 | > 100 | > 100 | > 100 | – | – | – | – | – | – | – | – | – | – |
| O=C1OC[C@H]2[C@@H]1[C@H]1O[C@@H]2C2=C(CCC2)C1=O | > 100 | > 100 | > 100 | > 100 | > 100 | > 100 | > 100 | > 100 | > 100 | > 100 | – | – | – | – | – | – | – | – | – | – |
| O=C(c1cccs1)N1CCN(C(=O)c2cccs2)C1=S | 19.8 | 7.7 | 17.7 | 18.1 | 32.1 | 35.8 | 21.4 | 20 | 19.2 | 10.1 | – | – | – | – | – | – | – | – | – | – |
| CN(C)CCCNc1ccc2nnn3c4ccc(O)cc4c(=O)c1c23 | 16.9 | 18.6 | 19.7 | 23.6 | 18.3 | 19.8 | 17.6 | 16.3 | 22.5 | 18.8 | – | – | – | – | – | – | – | – | – | – |
| O=C(CCN1CCN2c3ccccc3CCC2C1)c1ccc(F)cc1 (stereo not given) | > 100 | 90.3 | 55.1 | > 100 | > 100 | 35.7 | > 100 | > 100 | 32.2 | > 100 | – | – | – | – | – | – | – | – | – | – |
| Nc1nc(Cl)cc(NC23CC4CC(CC(C4)C2)C3)n1 | > 100 | > 100 | > 100 | > 100 | > 100 | > 100 | > 100 | > 100 | > 100 | > 100 | – | – | – | – | – | – | – | – | – | – |
| O=c1[nH]n(Cc2ccccc2)c2ccc([N+](=O)[O-])cc12 | > 100 | > 100 | > 100 | 78.6 | > 100 | > 100 | > 100 | > 100 | > 100 | > 100 | – | – | – | – | – | – | – | – | – | – |
| CCOC(=O)c1cc2c([N+](=O)[O-])c(N)ccc2s1 | > 100 | > 100 | > 100 | > 100 | > 100 | > 100 | > 100 | > 100 | > 100 | > 100 | – | – | – | – | – | – | – | – | – | – |
| C=C=C(CC(CC(=C)Br)(C(=O)OC)C(=O)OC)S(=O)(=O)c1ccccc1 | 10.6 | 3.35 | 3.44 | 4.93 | 6.33 | 1.76 | 3.44 | 7.45 | 3.23 | 3.13 | – | – | – | – | – | – | – | – | – | – |
